This is an account of results in patent US7358057B2, “QM-7 and QT-6 cells transfected with mutant cell surface expressed channel receptors and assays using the transfected cells” (Memory Pharmaceuticals Corporation, priority 2002, dated 2008).

Like-named read-outs stand apart in the source and are kept apart here.

In test [1] the target is T1, L270T mutant α7 receptor (Homo sapiens, UniProt P36544, L270T).
T1 construct: expressed in transfected cells; host or cells: QM-7 cells (quail), transient transfection with Lipofectamine PLUS
The test is described as follows: Real time, high throughput Ca++ imaging assay using FLIPR, QM-7 cells transiently transfected with L270T mutant α7. The test is classed as cell-based. The method, then: (§1) QM-7 cells were transiently transfected with either wild type or L 270T mutant α7 receptor with Lipofectamine PLUS reagent (Invitrogen), in 175 cm^2 flasks. Twenty four hours after the transfection, the cells were collected and re-seeded into a 96-well plate at a density of 40,000 cells/well. Twenty four hours after re-seeding, the cell were incubated with Ca^++ sensitive dye Fluo 3, washed and stimulated with the selective alpha 7 agonist GTS-21. Cellular Ca^++ signal was detected with FLIPR, quantified and plotted against the concentration of GTS-21.

Test [2] concerns the target T2, wild type α7 receptor (Homo sapiens, UniProt P36544).
T2 construct: expressed in transfected cells; host or cells: QM-7 cells (quail), transient transfection with Lipofectamine PLUS
The test is described as follows: Real time, high throughput Ca++ imaging assay using FLIPR, QM-7 cells transiently transfected with wild type α7. As to conditions: QM-7 cells transiently transfected with wild type human α7, Fluo 3 dye, FIG. 1. The test is classed as cell-based. As for the experimental part:
as §1

[3] abbreviates: QM-7 cells transiently transfected with human L270T α7, Fluo 3 dye, FLIPR, FIG. 1.

T1 sequence (P36544 23-502 L270T): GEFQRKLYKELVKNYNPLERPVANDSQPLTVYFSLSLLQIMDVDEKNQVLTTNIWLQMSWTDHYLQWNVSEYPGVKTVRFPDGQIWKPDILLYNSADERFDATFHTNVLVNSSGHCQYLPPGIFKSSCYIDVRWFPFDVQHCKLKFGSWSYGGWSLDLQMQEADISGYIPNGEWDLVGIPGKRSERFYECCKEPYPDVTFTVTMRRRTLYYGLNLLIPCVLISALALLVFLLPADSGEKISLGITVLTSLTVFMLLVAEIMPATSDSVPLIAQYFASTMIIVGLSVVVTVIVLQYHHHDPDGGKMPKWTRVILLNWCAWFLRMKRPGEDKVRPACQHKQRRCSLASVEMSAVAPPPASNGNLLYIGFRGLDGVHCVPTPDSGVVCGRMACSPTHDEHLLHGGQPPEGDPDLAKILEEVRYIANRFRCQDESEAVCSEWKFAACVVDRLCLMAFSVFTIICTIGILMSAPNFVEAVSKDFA
T2 sequence (P36544 23-502): as the sequence (P36544 23-502 L270T) above, with T248L counted along it

Regarding `COc1ccc(/C=C2\CCCN=C2c2cccnc2)c(OC)c1` [GTS-21], the “Cellular Ca++ signal on stimulation” value is listed as “dose-dependent increase of Ca^++ signal” in test [1] (setting [3]) and “failed to give a meaningful signal” in test [2]. In addition, in test [1] (setting [3]), the “Concentration at which the Ca++ signal saturated” value was determined as 10 µM.
As to `CCN1C[C@]2(COC(=O)c3ccccc3N3C(=O)C[C@H](C)C3=O)CC[C@H](OC)[C@@]34[C@@H]5C[C@H]6[C@H](OC)[C@@H]5[C@](O)(C[C@@H]6OC)[C@@](O)([C@@H](OC)[C@H]23)[C@@H]14` [MLA, Methyllycaconitine], in test [1], the “Attenuation of signals from epibatidine stimulation” value is “attenuated”.
Regarding `Clc1ccc(C2CC3CCC2N3)cn1` (stereo not drawn) [epibatidine], in test [1] (QM-7 cells transiently transfected with the mutant), the “Responsiveness of cells to agonist (Ca++ signal)” value is “responsive”.
Turning to `CN1CCCC1c1cccnc1` (stereo not drawn) [nicotine], the “Responsiveness of cells to agonist (Ca++ signal)” value in test [1] is “responsive”.
